The text below walks through data of ChEMBL document CHEMBL4725363 (J Med Chem, 2020).

Data set [1] in a line: MRT (0 to t) in Sprague-Dawley rat at 2.5 mg/kg, iv after 24 hrs by LC-MS/MS analysis. Conditions: in vivo. In kind it is ADME, organism-based.
A short description of data set [2]: AUC (0 to t) in Sprague-Dawley rat at 2.5 mg/kg, iv after 24 hrs by LC-MS/MS analysis. In kind it is ADME, organism-based. Also noted: route intravenous, dose 2.5 mg/kg, time 24 hrs. Conditions: in vivo.
Data set [3] concerns the target cGMP-specific 3',5'-cyclic phosphodiesterase (Homo sapiens, UniProt O76074). The experiment in a line: Inhibition of human PDE5A1 (535-860 residues) expressed in Escherichia coli BL21 incubated for 15 mins using [3H]-cGMP as substrate by liquid scintillation counting method.
Data set [4] has as its system Rattus norvegicus. The experiment in a line: Suppression of hypertension pressure in Wistar rat model of pulmonary hypertension assessed as reduction in MCT-induced wall thickness of small pulmonary arteries at 20 mg/kg/day, po for 3 weeks. The data set is classed as functional, organism-based.
Data set [5] in a line: Half life in Sprague-Dawley rat at 2.5 mg/kg, iv after 24 hrs by LC-MS/MS analysis. The data set is classed as ADME, organism-based. The conditions noted are these: in vivo.
Another data set has as its target Cytochrome P450 2C9 (Homo sapiens, UniProt P11712). The experiment in a line: Inhibition of CYP2C9 (unknown origin). The data set is classed as ADME.
Data set [6] in a line: Acute toxicity in KM mouse at 1000 to 1500 mg/kg, po administered as single dose measured every 24 hrs for 14 days relative to control. In kind it is organism-based. Conditions: in vivo, 336 h, dose 1000-1500 mg/kg, time 14 day.
Data set [7] is described as follows: AUC (0 to infinity) in Sprague-Dawley rat at 2.5 mg/kg, iv after 24 hrs by LC-MS/MS analysis. The data set is classed as ADME, organism-based. The conditions noted are these: in vivo. Also noted: route intravenous, time 24 hrs, dose 2.5 mg/kg.
Data set [8] addresses Cone cGMP-specific 3',5'-cyclic phosphodiesterase subunit alpha' (Homo sapiens, UniProt P51160). Nature of the data set: Inhibition of human PDE6C (2-854 residues) expressed in Sf9 cells incubated for 15 mins using [3H]-cGMP as substrate by liquid scintillation counting method.
The nature of data set [9]: AUC (0 to infinity) in Sprague-Dawley rat at 5 mg/kg, po after 24 hrs by LC-MS/MS analysis. In kind it is ADME, organism-based. Further details: route oral, time 24 hrs, dose 5 mg/kg. The conditions noted are these: in vivo.
The next data set addresses T1, Cytochrome P450 1A2 (Homo sapiens, UniProt P05177).
T1 sequence (P05177 whole entry): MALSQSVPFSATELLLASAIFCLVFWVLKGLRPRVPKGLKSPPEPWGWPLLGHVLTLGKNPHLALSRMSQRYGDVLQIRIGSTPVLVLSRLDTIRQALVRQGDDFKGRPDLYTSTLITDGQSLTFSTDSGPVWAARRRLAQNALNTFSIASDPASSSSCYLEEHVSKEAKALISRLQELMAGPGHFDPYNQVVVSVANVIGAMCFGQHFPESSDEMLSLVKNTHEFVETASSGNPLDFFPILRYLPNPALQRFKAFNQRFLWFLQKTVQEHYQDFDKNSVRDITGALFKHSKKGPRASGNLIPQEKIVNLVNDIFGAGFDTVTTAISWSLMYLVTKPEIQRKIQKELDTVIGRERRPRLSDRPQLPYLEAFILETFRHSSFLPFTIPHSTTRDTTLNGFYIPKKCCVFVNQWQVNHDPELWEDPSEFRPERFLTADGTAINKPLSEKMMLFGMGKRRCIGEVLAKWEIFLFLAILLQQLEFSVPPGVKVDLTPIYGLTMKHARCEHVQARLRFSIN
Nature of the data set: Inhibition of CYP1A2 (unknown origin). The data set is classed as ADME.

The target of data set [10] is cAMP and cAMP-inhibited cGMP 3',5'-cyclic phosphodiesterase 10A (Homo sapiens, UniProt Q9Y233). The experiment in a line: Inhibition of human PDE10A catalytic domain (449 to 770 residues) using [3H]-cAMP as substrate after 15 mins by liquid scintillation counting method.
Chain of cAMP and cAMP-inhibited cGMP 3',5'-cyclic phosphodiesterase 10A (Q9Y233 whole entry, the tested form may be a part): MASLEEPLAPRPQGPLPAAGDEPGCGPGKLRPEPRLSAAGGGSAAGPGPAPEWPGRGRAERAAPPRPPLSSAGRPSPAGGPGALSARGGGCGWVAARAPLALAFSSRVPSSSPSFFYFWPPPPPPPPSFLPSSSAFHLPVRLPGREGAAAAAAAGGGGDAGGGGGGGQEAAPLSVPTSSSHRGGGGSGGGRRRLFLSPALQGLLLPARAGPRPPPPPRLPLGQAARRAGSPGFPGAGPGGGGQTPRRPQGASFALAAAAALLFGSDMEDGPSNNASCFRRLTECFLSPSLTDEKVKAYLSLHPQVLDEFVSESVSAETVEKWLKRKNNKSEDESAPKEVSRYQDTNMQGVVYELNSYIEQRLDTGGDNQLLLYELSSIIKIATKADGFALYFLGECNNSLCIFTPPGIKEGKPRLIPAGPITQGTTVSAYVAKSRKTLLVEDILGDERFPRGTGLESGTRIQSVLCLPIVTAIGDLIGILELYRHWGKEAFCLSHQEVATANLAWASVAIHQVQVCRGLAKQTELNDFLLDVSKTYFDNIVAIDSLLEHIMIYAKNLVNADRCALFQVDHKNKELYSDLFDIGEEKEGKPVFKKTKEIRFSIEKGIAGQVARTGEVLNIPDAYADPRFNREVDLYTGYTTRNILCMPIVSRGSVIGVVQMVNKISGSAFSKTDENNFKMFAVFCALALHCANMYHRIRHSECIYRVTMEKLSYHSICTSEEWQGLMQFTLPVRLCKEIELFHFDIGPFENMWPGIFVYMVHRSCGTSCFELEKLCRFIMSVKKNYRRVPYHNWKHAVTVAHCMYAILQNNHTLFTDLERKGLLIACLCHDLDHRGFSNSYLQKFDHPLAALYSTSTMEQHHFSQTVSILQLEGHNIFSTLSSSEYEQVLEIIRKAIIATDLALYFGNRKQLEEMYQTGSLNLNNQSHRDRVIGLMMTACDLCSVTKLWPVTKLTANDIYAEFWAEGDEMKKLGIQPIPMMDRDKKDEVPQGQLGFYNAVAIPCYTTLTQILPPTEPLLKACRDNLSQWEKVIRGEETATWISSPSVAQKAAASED
Data set [11] in a line: Inhibition of human PDE5A1 D563A mutant expressed in Escherichia coli BL21 incubated for 15 mins using [3H]-cGMP as substrate by liquid scintillation counting method.
Data set [12] is described as follows: Cmax in Sprague-Dawley rat at 5 mg/kg, po after 24 hrs by LC-MS/MS analysis. The conditions noted are these: in vivo. Further details: route oral, dose 5 mg/kg, time 24 hrs. The data set is classed as ADME, organism-based.
In a further data set the target is Cytochrome P450 2D6 (Homo sapiens, UniProt P10635). Nature of the data set: Inhibition of CYP2D6 (unknown origin). The data set is classed as ADME.
Chain of Cytochrome P450 2D6 (P10635 whole entry): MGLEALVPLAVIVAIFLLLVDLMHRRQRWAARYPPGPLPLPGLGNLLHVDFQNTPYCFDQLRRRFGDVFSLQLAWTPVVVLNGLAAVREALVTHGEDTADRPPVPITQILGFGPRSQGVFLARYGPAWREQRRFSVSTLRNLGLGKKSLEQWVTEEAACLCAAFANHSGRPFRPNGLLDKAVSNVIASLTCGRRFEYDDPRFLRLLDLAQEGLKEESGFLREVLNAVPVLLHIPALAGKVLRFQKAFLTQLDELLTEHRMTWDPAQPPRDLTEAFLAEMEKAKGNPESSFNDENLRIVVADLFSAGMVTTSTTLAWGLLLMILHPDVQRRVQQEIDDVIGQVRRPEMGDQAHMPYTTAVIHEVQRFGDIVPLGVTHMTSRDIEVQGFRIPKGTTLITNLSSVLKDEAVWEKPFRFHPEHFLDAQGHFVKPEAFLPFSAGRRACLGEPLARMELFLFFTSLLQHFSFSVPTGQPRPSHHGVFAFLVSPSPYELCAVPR
Data set [13] addresses T2, DNA topoisomerase 1 (Homo sapiens) (UniProt P11387).
T2 sequence (whole entry): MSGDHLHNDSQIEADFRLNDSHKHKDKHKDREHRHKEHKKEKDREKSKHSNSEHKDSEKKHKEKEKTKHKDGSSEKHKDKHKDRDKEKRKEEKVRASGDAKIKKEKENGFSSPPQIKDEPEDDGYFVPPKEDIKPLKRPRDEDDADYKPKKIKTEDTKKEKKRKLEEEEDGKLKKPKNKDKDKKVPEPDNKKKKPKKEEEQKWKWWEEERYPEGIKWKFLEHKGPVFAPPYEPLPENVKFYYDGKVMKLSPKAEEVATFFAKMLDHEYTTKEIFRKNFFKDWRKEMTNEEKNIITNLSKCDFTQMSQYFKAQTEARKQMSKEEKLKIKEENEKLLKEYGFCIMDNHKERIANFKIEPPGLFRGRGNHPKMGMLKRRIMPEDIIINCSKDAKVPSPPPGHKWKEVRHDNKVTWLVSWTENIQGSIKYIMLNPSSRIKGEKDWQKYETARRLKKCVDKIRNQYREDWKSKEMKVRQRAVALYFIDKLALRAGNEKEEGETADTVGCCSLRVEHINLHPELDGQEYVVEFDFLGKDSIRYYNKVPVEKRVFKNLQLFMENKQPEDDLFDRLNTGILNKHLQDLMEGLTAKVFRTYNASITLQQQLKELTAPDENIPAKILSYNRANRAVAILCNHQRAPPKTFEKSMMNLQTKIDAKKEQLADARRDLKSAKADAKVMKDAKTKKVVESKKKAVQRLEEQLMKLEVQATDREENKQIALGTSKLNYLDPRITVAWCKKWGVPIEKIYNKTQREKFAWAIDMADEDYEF
Nature of the data set: Inhibition of Top (unknown origin) mediated supercoiled DNA relaxation at 100 uM.

Data set [14] in a line: Acute toxicity in KM mouse at 1000 to 1500 mg/kg, po administered as single dose measured every 24 hrs for 14 days. The data set is classed as organism-based. The conditions noted are these: in vivo, 336 h, dose 1000-1500 mg/kg, time 14 day.
Data set [15] is described as follows: Half life in Sprague-Dawley rat at 5 mg/kg, po after 24 hrs by LC-MS/MS analysis. The data set is classed as ADME, organism-based. The conditions noted are these: in vivo.
The nature of data set [16]: Tmax in Sprague-Dawley rat at 2.5 mg/kg, iv after 24 hrs by LC-MS/MS analysis. The data set is classed as ADME, organism-based. The conditions noted are these: in vivo.
Data set [17] addresses Dual 3',5'-cyclic-AMP and -GMP phosphodiesterase 11A (Homo sapiens, UniProt Q9HCR9). The experiment in a line: Inhibition of PDE11A catalytic domain (unknown origin) using [3H]-cAMP or [3H]-[…] as substrate after 15 mins by liquid scintillation counting method.
Data set [18] has as its system Rattus norvegicus. Nature of the data set: Suppression of hypertension pressure in Wistar rat model of pulmonary hypertension assessed as dilation of small pulmonary vessels arteries at 20 mg/kg/day, po for 3 weeks by H and E staining based microscopy. In kind it is functional, organism-based.
Data set [19] in a line: Cmax in Sprague-Dawley rat at 2.5 mg/kg, iv after 24 hrs by LC-MS/MS analysis. In kind it is ADME, organism-based. Also noted: route intravenous, time 24 hrs, dose 2.5 mg/kg. The conditions noted are these: in vivo.
A short description of data set [20]: MRT (0 to t) in Sprague-Dawley rat at 5 mg/kg, po after 24 hrs by LC-MS/MS analysis. The data set is classed as ADME, organism-based. Conditions: in vivo.

The source made the active and inactive calls. No cut-off for these calls is given here.

Chain of Dual 3',5'-cyclic-AMP and -GMP phosphodiesterase 11A (Q9HCR9 whole entry, the tested form may be a part): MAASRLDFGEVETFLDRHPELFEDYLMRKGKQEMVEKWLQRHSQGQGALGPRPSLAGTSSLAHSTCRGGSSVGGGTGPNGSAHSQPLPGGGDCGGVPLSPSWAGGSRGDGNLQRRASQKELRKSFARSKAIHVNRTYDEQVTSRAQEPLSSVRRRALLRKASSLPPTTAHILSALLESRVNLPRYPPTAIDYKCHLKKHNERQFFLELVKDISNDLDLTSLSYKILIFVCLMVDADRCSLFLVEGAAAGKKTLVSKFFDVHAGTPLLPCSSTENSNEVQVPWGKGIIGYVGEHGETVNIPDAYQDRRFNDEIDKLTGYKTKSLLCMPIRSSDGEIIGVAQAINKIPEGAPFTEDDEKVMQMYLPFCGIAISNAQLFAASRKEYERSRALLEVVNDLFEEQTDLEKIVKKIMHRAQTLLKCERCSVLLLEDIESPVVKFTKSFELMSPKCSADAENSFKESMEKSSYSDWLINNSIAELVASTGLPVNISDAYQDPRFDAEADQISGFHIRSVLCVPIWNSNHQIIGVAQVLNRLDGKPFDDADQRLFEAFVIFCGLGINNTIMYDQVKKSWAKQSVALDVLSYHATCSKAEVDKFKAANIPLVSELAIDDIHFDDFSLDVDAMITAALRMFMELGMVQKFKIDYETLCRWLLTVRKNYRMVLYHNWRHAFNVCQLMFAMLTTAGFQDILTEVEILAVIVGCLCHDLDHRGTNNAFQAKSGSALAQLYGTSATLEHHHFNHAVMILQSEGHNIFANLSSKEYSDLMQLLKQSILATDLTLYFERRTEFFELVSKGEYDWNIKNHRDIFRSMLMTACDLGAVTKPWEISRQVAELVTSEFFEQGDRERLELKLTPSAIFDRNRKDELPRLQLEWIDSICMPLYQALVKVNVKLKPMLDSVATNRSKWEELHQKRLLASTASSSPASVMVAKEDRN
Chain of Cytochrome P450 2C9 (P11712 whole entry): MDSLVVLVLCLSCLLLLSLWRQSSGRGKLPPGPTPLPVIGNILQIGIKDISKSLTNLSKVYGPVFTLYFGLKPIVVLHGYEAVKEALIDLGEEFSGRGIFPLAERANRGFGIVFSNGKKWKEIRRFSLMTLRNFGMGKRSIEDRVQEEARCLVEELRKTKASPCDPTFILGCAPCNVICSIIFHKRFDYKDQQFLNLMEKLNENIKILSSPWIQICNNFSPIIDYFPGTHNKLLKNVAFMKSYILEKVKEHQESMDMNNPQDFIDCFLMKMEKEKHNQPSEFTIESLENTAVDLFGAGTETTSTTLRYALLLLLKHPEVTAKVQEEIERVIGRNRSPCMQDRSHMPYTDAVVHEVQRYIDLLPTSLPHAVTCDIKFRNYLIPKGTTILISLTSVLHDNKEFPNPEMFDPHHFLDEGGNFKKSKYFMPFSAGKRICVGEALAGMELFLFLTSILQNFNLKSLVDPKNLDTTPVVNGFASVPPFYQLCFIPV
Chain of Cone cGMP-specific 3',5'-cyclic phosphodiesterase subunit alpha' (P51160 whole entry, the tested form may be a part): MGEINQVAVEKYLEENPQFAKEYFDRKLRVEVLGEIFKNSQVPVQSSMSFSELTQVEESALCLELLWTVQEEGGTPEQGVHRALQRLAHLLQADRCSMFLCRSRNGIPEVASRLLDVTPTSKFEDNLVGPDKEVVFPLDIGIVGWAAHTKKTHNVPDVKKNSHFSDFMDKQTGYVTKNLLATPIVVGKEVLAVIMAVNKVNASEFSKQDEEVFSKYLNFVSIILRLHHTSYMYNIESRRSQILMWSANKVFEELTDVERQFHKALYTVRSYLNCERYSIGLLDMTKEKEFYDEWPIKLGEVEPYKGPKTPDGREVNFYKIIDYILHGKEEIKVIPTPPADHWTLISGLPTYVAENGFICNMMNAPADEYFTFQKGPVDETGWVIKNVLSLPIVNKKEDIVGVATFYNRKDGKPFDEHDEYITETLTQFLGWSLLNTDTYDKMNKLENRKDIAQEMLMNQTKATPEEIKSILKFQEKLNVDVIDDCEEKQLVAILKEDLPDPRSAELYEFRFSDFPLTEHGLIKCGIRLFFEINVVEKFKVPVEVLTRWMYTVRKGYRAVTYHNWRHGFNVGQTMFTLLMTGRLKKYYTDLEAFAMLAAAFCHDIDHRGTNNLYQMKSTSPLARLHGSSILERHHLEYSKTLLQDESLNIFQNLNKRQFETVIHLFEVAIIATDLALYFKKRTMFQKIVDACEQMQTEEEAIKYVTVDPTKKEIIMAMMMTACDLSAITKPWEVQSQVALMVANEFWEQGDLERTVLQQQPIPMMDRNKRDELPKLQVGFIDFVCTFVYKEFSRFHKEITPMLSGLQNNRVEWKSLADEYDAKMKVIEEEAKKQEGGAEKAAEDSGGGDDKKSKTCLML

Turning to `COc1ccc2c3c([nH]c2c1)[C@@H]1N(CC3)C(=O)c2c(OC)cccc2N1C`, the MRT last at 24 h in data set [1] stood at 8.4 min; in data set [20], 191 min. For the same compound, in data set [2], the AUC(0-t) at 24 h amounted to 519 ng·h/mL. In addition, the IC50 in [3] is 0.042 µM; against Cytochrome P450 2C9 it was 10 µM; in data set [8], above 150 µM; against Cytochrome P450 1A2, 10 µM; in data set [10], 3 µM; in [11], 2.48 µM. The results for the IC50 (against Cytochrome P450 2D6; in [17]) were 10 µM and above 30 µM, respectively. For the same compound, the result with Rattus norvegicus [4] and in the data set with Rattus norvegicus [18] was Active. Besides, the half-life in data set [5] was 13.2 min; in data set [15] it was 85.8 min. Besides, the results for the Activity in data set [6] and in data set [14] were above 1.5 g/kg and “Non-Toxic”, respectively. Moreover, the area under the curve AUC(0-inf) was 520 ng·h/mL in [7] and 155 ng·h/mL in data set [9]. Also, the values for the Cmax in data set [12] and in data set [19] were 54.4 ng/mL and 1800 ng/mL, respectively. In addition, the inhibition result in data set [13] is “inactive”. Moreover, the Tmax in [16] turned out to be 4.98 min.

The term MRT last denotes the average time that molecules of a dose stay in the body. What is called AUC(0-t) is the area under the concentration-time curve up to a stated or last time point. Read a high AUC(0-t) as high exposure. A word on the IC50: it is the concentration that gives 50% inhibition. By half-life is commonly meant how long it takes for the measured level to halve. One may read the AUC(0-inf) as the area under the concentration-time curve extrapolated to infinity. A word on the Cmax: it is the peak of the concentration-time curve. What is called Tmax is the time at which the peak concentration occurs.
